Where a name gives a salt, the structure may show the parent alone.
The compounds below were run against T1, cloned human H3 receptors (Homo sapiens, UniProt Q9Y5N1) (assay: H3 Receptor Binding (Human)). Settings: bromo-pyridine intermediates (Step A), value given in the synthesis; read-out: Assay 1 (Human H3): Ki.
T1 construct: expressed in transfected cells
Protocol: H3 Receptor Binding (Human)
Binding of compounds to the cloned human H3 receptors, stably expressed in SK-N-MC cells, was performed as described by Barbier, A. J. et al. (Br. J. Pharmacol. 2004, 143(5), 649-661).

T1 sequence (Q9Y5N1 whole entry): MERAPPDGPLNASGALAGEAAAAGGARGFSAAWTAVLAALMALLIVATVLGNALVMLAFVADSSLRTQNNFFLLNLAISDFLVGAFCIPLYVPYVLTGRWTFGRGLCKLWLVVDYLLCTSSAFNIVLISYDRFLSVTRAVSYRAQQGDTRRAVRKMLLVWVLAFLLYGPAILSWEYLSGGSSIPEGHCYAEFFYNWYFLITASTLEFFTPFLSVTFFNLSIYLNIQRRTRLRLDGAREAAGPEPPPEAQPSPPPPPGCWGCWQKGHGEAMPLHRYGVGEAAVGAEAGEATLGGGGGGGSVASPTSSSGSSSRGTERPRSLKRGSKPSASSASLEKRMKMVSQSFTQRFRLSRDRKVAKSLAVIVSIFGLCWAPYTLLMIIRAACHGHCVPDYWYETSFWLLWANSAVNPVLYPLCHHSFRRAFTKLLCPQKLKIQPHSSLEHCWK

| SMILES | Ki |
| --- | --- |
| O=C(c1cccc(Br)n1)N1CCCN(C2CC2)CC1 [(6-Bromo-pyridin-2-yl)-(4-cyclopropyl-[1,4]diazepan-1-yl)-methanone] | 431 nM |
| O=C(c1ccc(Br)cn1)N1CCCN(C2CCC2)CC1 [(5-Bromo-pyridin-2-yl)-(4-cyclobutyl-[1,4]diazepan-1-yl)-methanone] | 11 nM |
| O=C(c1ccc(Br)cn1)N1CCCN(C2CC2)CC1 [(5-Bromo-pyridin-2-yl)-(4-cyclopropyl-[1,4]diazepan-1-yl)-methanone] | 115 nM |
| CC(C)N1CCCN(C(=O)c2cccc(Br)n2)CC1 [(6-Bromo-pyridin-2-yl)-(4-isopropyl-[1,4]diazepan-1-yl)-methanone] | 752 nM |

Same assay, conditions: cloned human H3 receptors stably expressed in SK-N-MC cells; average of the results obtained; read-out: Human H3 Ki

| SMILES | Ki |
| --- | --- |
| O=C(c1cccc(Oc2ccc(Cl)c(Cl)c2)n1)N1CCCN(C2CCC2)CC1 [Example 45, (4-Cyclobutyl-[1,4]diazepan-1-yl)-[6-(3,4-dichloro-phenoxy)-pyridin-2-yl]-methanone] | 34 nM |
| O=C(c1ccc(Oc2cc(Cl)cc(Cl)c2)nc1)N1CCCN(C2CCC2)CC1 [Example 33, (4-Cyclobutyl-[1,4]diazepan-1-yl)-[6-(3,5-dichloro-phenoxy)-pyridin-3-yl]-methanone] | 1 nM |
| N#Cc1nc(C(=O)N2CCCN(C3CC3)CC2)ccc1Oc1ccccc1 [Example 81, 6-(4-Cyclopropyl-[1,4]diazepane-1-carbonyl)-3-phenoxy-pyridine-2-carbonitrile] | 3 nM |
| CC(C)N1CCN(C(=O)c2ccc(Oc3ccc(Cl)c(Cl)c3)c(C#N)n2)CC1 [Example 53, 3-(3,4-Dichloro-phenoxy)-6-(4-isopropyl-piperazine-1-carbonyl)-pyridine-2-carbonitrile trifluoroacetic acid salt] | 49 nM |
| CSc1ccc(Oc2ccc(C(=O)N3CCN(C(C)C)CC3)cn2)cc1 [Example 3, (4-Isopropyl-piperazin-1-yl)-[6-(4-methylsulfanyl-phenoxy)-pyridin-3-yl]-methanone] | 66 nM |
| Cc1cc(Oc2cccc(C(=O)N3CCCN(C4CC4)CC3)n2)ccc1Cl [Example 47, [6-(4-Chloro-3-methyl-phenoxy)-pyridin-2-yl]-(4-cyclopropyl-[1,4]diazepan-1-yl)-methanone trifluoroacetic acid salt] | 357 nM |
| CC(C)N1CCN(C(=O)c2ccc(Oc3cccc(Cl)c3)nc2)CC1 [Example 4, [6-(3-Chloro-phenoxy)-pyridin-3-yl]-(4-isopropyl-piperazin-1-yl)-methanone] | 56 nM |
| CC(C)N1CCCN(C(=O)c2ccc(Oc3cccc(F)c3)nc2)CC1 [Example 38, [6-(3-Fluoro-phenoxy)-pyridin-3-yl]-(4-isopropyl-[1,4]diazepan-1-yl)-methanone] | 6 nM |
| CCN1CCCN(C(=O)c2ccc(Oc3ccc(F)cc3)nc2)CC1 [Example 98, (4-Ethyl-[1,4]diazepan-1-yl)-[6-(4-fluoro-phenoxy)-pyridin-3-yl]-methanone] | 19 nM |
| Cc1cc(Oc2ccc(C(=O)N3CCCN(C4CCC4)CC3)cn2)ccc1Cl [Example 16, [6-(4-Chloro-3-methyl-phenoxy)-pyridin-3-yl]-(4-cyclobutyl-[1,4]diazepan-1-yl)-methanone] | 2 nM |
| O=C(c1ccc(Oc2cc(F)ccc2F)nc1)N1CCCN(C2CC2)CC1 [Example 34, (4-Cyclopropyl-[1,4]diazepan-1-yl)-[6-(2,5-difluoro-phenoxy)-pyridin-3-yl]-methanone] | 5 nM |
| CSc1ccc(Oc2ccc(C(=O)N3CCCN(C4CC4)CC3)nc2C#N)cc1 [Example 55, 6-(4-Cyclopropyl-[1,4]diazepane-1-carbonyl)-3-(4-methylsulfanyl-phenoxy)-pyridine-2-carbonitrile] | 21 nM |
| O=C(c1ccc(Sc2ccc(Cl)cc2)nc1)N1CCCN(C2CCC2)CC1 [Example 85, [6-(4-Chloro-phenylsulfanyl)-pyridin-3-yl]-(4-cyclobutyl-[1,4]diazepan-1-yl)-methanone] | 1 nM |
| O=C(c1ccc(Oc2ccc(F)cc2)cn1)N1CCCN(C2CCC2)CC1 [Example 69, (4-Cyclobutyl-[1,4]diazepan-1-yl)-[5-(4-fluoro-phenoxy)-pyridin-2-yl]-methanone trifluoroacetic acid salt] | 2 nM |
| CC(C)N1CCCN(C(=O)c2ccc(Oc3ccc(Cl)c(Cl)c3)nc2)CC1 [Example 15, [6-(3,4-Dichloro-phenoxy)-pyridin-3-yl]-(4-isopropyl-[1,4]diazepan-1-yl)-methanone] | 8 nM |
| CC(C)N1CCN(C(=O)c2ccc(Oc3ccc(Cl)c(Cl)c3)c(C(N)=O)n2)CC1 [Example 54, 3-(3,4-Dichloro-phenoxy)-6-(4-isopropyl-piperazine-1-carbonyl)-pyridine-2-carboxylic acid amide trifluoroacetic acid salt] | 104 nM |
| N#Cc1nc(C(=O)N2CCCN(C3CC3)CC2)ccc1Oc1cccc(F)c1 [Example 60, 6-(4-Cyclopropyl-[1,4]diazepane-1-carbonyl)-3-(3-fluoro-phenoxy)-pyridine-2-carbonitrile] | 29 nM |
| O=C(c1ccc(Oc2ccc(F)cc2)nc1)N1CCN(C2CC2)CC1 [Example 22, (4-Cyclopropyl-piperazin-1-yl)-[6-(4-fluoro-phenoxy)-pyridin-3-yl]-methanone] | 180 nM |
| CC(C)N1CCN(C(=O)c2ccc(Oc3ccccc3)nc2)CC1 [Example 5, (4-Isopropyl-piperazin-1-yl)-(6-phenoxy-pyridin-3-yl)-methanone] | 71 nM |

| SMILES | Ki |
| --- | --- |
| O=C(c1ccc(Oc2ccc(F)cc2)nc1)N1CCN(C2CCC2)CC1 [Example 79, (4-Cyclobutyl-piperazin-1-yl)-[6-(4-fluoro-phenoxy)-pyridin-3-yl]-methanone] | 10 nM |
| O=C(c1ccc(Oc2ccccc2Cl)nc1)N1CCN(C2CCCC2)CC1 [Example 76, [6-(2-Chloro-phenoxy)-Pyridin-3-yl]-(4-cyclopentyl-piperazin-1-yl)-methanone] | 19 nM |
| N#Cc1nc(C(=O)N2CCCN(C3CC3)CC2)ccc1Oc1ccc(Cl)c(Cl)c1 [Example 58, 6-(4-Cyclopropyl-[1,4]diazepane-1-carbonyl)-3-(3,4-dichloro-phenoxy)-pyridine-2-carbonitrile] | 10 nM |
| CN1CCCN(C(=O)c2ccc(Oc3ccc(F)cc3)nc2)CC1 [Example 92, [6-(4-Fluoro-phenoxy)-pyridin-3-yl]-(4-methyl-[1,4]diazepan-1-yl)-methanone] | 250 nM |
| CC(C)N1CCCN(C(=O)c2ccc(Oc3ccc(Cl)c(Cl)c3)cn2)CC1 [Example 50, [5-(3,4-Dichloro-phenoxy)-pyridin-2-yl]-(4-isopropyl-[1,4]diazepan-1-yl)-methanone trifluoroacetic acid salt] | 18 nM |
| O=C(c1ccc(Sc2ccccc2)cn1)N1CCCN(C2CCC2)CC1 [Example 91, (4-Cyclobutyl-[1,4]diazepan-1-yl)-(5-phenylsulfanyl-pyridin-2-yl)-methanone] | 3 nM |
| CC(C)N1CCN(C(=O)c2ccc(Oc3cccnc3)nc2)CC1 [Example 2, (4-Isopropyl-piperazin-1-yl)-[6-(pyridin-3-yloxy)-pyridin-3-yl]-methanone] | 56 nM |
| Cc1cc(Oc2ccc(C(=O)N3CCCN(C(C)C)CC3)cn2)ccc1Cl [Example 17, [6-(4-Chloro-3-methyl-phenoxy)-pyridin-3-yl]-(4-isopropyl-[1,4]diazepan-1-yl)-methanone] | 5 nM |
| O=C(c1ccc(Oc2cc(Cl)cc(Cl)c2)nc1)N1CCCN(C2CC2)CC1 [Example 35, (4-Cyclopropyl-[1,4]diazepan-1-yl)-[6-(3,5-dichloro-phenoxy)-pyridin-3-yl]-methanone] | 3 nM |
| O=C(c1ccc(Oc2ccc(Cl)cc2)nc1)N1CCN(C2CCCC2)CC1 [Example 77, [6-(4-Chloro-phenoxy)-Pyridin-3-yl]-(4-cyclopentyl-piperazin-1-yl)-methanone] | 22 nM |
| CC(C)N1CCN(C(=O)c2ccc(Oc3ccc(F)cc3)nc2)CC1 [Example 99, [6-(4-Fluoro-phenoxy)-pyridin-3-yl]-(4-isopropyl-piperazin-1-yl)-methanone] | 28 nM |
| CSc1ccc(Oc2ccc(C(=O)N3CCCN(C(C)C)CC3)cn2)cc1C [Example 42, (4-Isopropyl-[1,4]diazepan-1-yl)-[6-(3-methyl-4-methylsulfanyl-phenoxy)-pyridin-3-yl]-methanone] | 12 nM |
| CC(C)CN1CCN(C(=O)c2ccc(Oc3ccc(F)cc3)nc2)CC1 [Example 93, [6-(4-Fluoro-phenoxy)-pyridin-3-yl]-(4-isobutyl-piperazin-1-yl)-methanone] | 58 nM |
| CSc1ccc(Oc2ccc(C(=O)N3CCN(C(C)C)CC3)cn2)cc1C [Example 101, (4-Isopropyl-piperazin-1-yl)-[6-(3-methyl-4-methylsulfanyl-phenoxy)-pyridin-3-yl]-methanone] | 59 nM |
| CSc1ccc(Oc2ccc(C(=O)N3CCN(C4CCCC4)CC3)cn2)cc1C [Example 100, (4-Cyclopentyl-piperazin-1-yl)-[6-(3-methyl-4-methylsulfanyl-phenoxy)-pyridin-3-yl]-methanone] | 98 nM |
| O=C(c1ccc(Oc2ccc(Cl)cc2)nc1)N1CCCN(C2CC2)CC1 [Example 10, [6-(4-Chloro-phenoxy)-pyridin-3-yl]-(4-cyclopropyl-[1,4]diazepan-1-yl)-methanone] | 10 nM |
| N#Cc1nc(C(=O)N2CCCN(C3CCC3)CC2)ccc1Oc1ccc(F)cc1 [Example 82, 6-(4-Cyclobutyl-[1,4]diazepane-1-carbonyl)-3-(4-fluoro-phenoxy)-pyridine-2-carbonitrile] | 1 nM |
| Cc1cccc(Oc2ccc(C(=O)N3CCCN(C4CCC4)CC3)cn2)c1 [Example 103, (4-Cyclobutyl-[1,4]diazepan-1-yl)-(6-m-tolyloxy-pyridin-3-yl)-methanone] | 1 nM |
| CC(C)N1CCCN(C(=O)c2cccc(Oc3ccc(Cl)c(Cl)c3)n2)CC1 [Example 46, [6-(3,4-Dichloro-phenoxy)-pyridin-2-yl]-(4-isopropyl-[1,4]diazepan-1-yl)-methanone] | 202 nM |
